Test results published in publication PMC6462414 (Nature, 2018).
Converted amounts (≈) assume the structure as drawn. Where two headings read alike, the source gives them in different places.

How the values were obtained:
MRSA strain MW2 = assay: MIC / growth inhibition of MRSA strain MW2; assay type: cell-based, Staphylococcus aureus; conditions: for minimum inhibitory concentration (MIC): MRSA strain MW2
[1] = test system: Exponential-phase MRSA cells (strain MW2); assay: Killing kinetics, exponential-phase MRSA MW2; assay type: cell-based, Staphylococcus aureus; conditions: 10× MIC, level of detection 2 × 10^2 CFU ml^−1
[2] = test system: MRSA-MW2-infected C. elegans; assay: C. elegans-MRSA killing assay; assay type: in vivo, Caenorhabditis elegans; conditions: for C. elegans protected against MW2-induced death: at concentrations above in vitro MICs
[3] = test system: clinical S. aureus strains; assay: Activity against panel of clinical S. aureus strains; assay type: cell-based, Staphylococcus aureus
[4] = test system: Enterococcus faecium strains; assay: Activity against Enterococcus faecium strains; assay type: cell-based
Gram-negative species = assay: Activity against Gram-negative species; assay type: cell-based
S. aureus MW2 [5] = assay type: cell-based, Staphylococcus aureus; conditions: for retinoid-resistant mutants by plating: 10^10 CFU MW2 plated on agar with 2.5×, 5× or 10× MIC
[6] = test system: exponential-phase S. aureus MW2 cells; assay: SYTOX Green membrane permeabilization, exponential-phase MW2; assay type: cell-based, Staphylococcus aureus
S. aureus MW2 [7] = assay: Transmission electron microscopy of retinoid-treated cells; assay type: cell-based, Staphylococcus aureus; conditions: 10× MIC
[8] = Giant unilamellar vesicle integrity; conditions: DOPC:DOPG 7:3
[9] = test system: Exponential-phase S. aureus MW2; assay: Cell lysis; assay type: cell-based, Staphylococcus aureus; conditions: 10× MIC, 4 h, OD600
S. aureus MW2 persisters [10] = assay: Viability of MRSA MW2 persisters; assay type: cell-based, Staphylococcus aureus; conditions: for eradication of MRSA persisters: at 8 μg ml^−1; for killing of MRSA persister cells: stationary-phase MW2, 4 h
[11] = test system: persisters formed by clinical isolates including VRS1; assay: Viability of persisters of clinical S. aureus isolates; assay type: cell-based, Staphylococcus aureus; conditions: 8–10× MIC; including multi-drug resistant VRS1
MRSA MW2 biofilms = assay: Persisters in MRSA biofilms; assay type: cell-based, Staphylococcus aureus
[12] = test system: MRSA growing and persister cells; assay: Synergism with gentamicin; assay type: cell-based, Staphylococcus aureus
human erythrocytes = assay: Haemolytic activity; assay type: cell-based; conditions: 2% human erythrocytes, 1 h
[13] = test system: normal human primary hepatocytes; assay: Cytotoxicity, human primary hepatocytes; assay type: cell-based; conditions: 24 h
S. aureus MW2 persisters [14] = conditions: not told
[15] = cited from earlier work
[16] = Hepatic and renal toxicity in mice; assay type: in vivo, mouse; conditions: every 12 h for 3 days, i.p.; analogue 2 10–80 mg kg^−1, vancomycin 25 mg kg^−1; P > 0.7
[17] = test system: MW2-infected neutropenic mice; assay: Deep-seated mouse thigh MRSA infection model; assay type: in vivo; conditions: 20 mg kg^−1 i.p. alone or in combination with gentamicin 30 mg kg^−1 s.c.
S. aureus MW2 persisters [18] = assay: SYTOX Green membrane permeabilization, MW2 persisters; conditions: SYTOX Green uptake
[19] = 100 days serial passage in sub-MIC CD437

For `O=C(O)c1ccc(-c2ccc3cc(O)c(C45CC6CC(CC(C6)C4)C5)cc3c2)cc1` [CD1530], the “minimum inhibitory concentration (MIC)” value (MRSA strain MW2) was 1 µg/mL (≈ 2.51 µM), the “levels of MW2 after two hours” value [1] was “below the limit of detection” and the “C. elegans protected against MW2-induced death” value [2] was 100%. For the same compound, the “activity against panel of clinical S. aureus strains” value [3] was “potent activity”, the “activity against Enterococcus faecium strains” value [4] was “potent activity” and the “activity against Gram-negative species” value (Gram-negative species) was “not against Gram-negative species”. For the same compound, the “retinoid-resistant mutants by plating” value (S. aureus MW2 [5]) was “unable to obtain retinoid-resistant mutants”, the “increase in resistance after serial passage” value (shortened to “increase in resistance”) (S. aureus MW2 [5]; [19]) was “twofold” and the “membrane permeabilization (SYTOX Green uptake)” value (from here on “membrane permeabilization”) [6] was “induced membrane permeabilization”. For the same compound, the “formation of mesosome-like structures” value (S. aureus MW2 [7]) was “caused the formation of mesosome-like structures”, the “integrity of giant unilamellar vesicles” value [8] was “disrupted the integrity” and the “direct lysis of bacterial cells” value [9] was “did not lyse bacterial cells directly”. The “eradication of MRSA persisters” value (S. aureus MW2 persisters [10]) was “completely eradicated MRSA persisters”, the “killing of MRSA persister cells” value (S. aureus MW2 persisters [10]) was “killed MRSA-persister cells” and the “time to complete eradication of persisters of 13 clinical isolates” value [11] was 1 to 4 h. For the same compound, the “persisters in MRSA biofilms killed” value (MRSA MW2 biofilms; 16× MIC) was “around 90%”, the “persisters in MRSA biofilms killed” value (MRSA MW2 biofilms; 32× MIC) was ~100% and the synergism with gentamicin [12] was “significant synergism”. For the same compound, the “median haemolytic concentration (HC50)” value (human erythrocytes) was “greater than 32 μg ml^−1”, the “median lethal concentration (LC50)” value [13] was ≥ 20 µg/mL and the “permeabilization of MRSA-persister membranes” value (S. aureus MW2 persisters [14]) was “induced rapid permeabilization”.
In the case of daptomycin, the “increase in resistance” value (S. aureus MW2 [5]; serial passage in daptomycin for 15 days) is reported as “tenfold”.
For `O=C(O)/C=C/c1ccc(-c2ccc(O)c(C34CC5CC(CC(C5)C3)C4)c2)cc1` [adarotene], the MIC (MRSA strain MW2; Staphylococcus aureus, MRSA, read-out: minimum inhibitory concentration (MIC)) was 2 µg/mL (≈ 5.34 µM), the “MRSA-induced death of C. elegans” value ([2]; in vivo) was “prevented the MRSA-induced death of C. elegans” and the “retinoid-resistant mutants by plating” value (S. aureus MW2 [5]) was “unable to obtain retinoid-resistant mutants”. The “increase in resistance” value (S. aureus MW2 [5]; [19]) was “twofold”, the “membrane permeabilization” value ([6]; exponential-phase MW2) was “induced membrane permeabilization” and the “integrity of giant unilamellar vesicles” value [8] was “disrupted the integrity”. The “killing of MRSA persister cells” value (S. aureus MW2 persisters [10]) was “inactive against persister cells”, the “median haemolytic concentration (HC50)” value (human erythrocytes) was “greater than 32 μg ml^−1” and the excretion [15] was “excreted rapidly”.
With `CN[C@H](CC(C)C)C(=O)N[C@H]1C(=O)N[C@@H](CC(N)=O)C(=O)N[C@H]2C(=O)N[C@H]3C(=O)N[C@H](C(=O)N[C@H](C(=O)O)c4cc(O)cc(O)c4-c4cc3ccc4O)[C@H](O)c3ccc(c(Cl)c3)Oc3cc2cc(c3O[C@@H]2O[C@H](CO)[C@@H](O)[C@H](O)[C@H]2O[C@H]2C[C@](C)(N)[C@H](O)[C@H](C)O2)Oc2ccc(cc2Cl)[C@H]1O` [vancomycin] the “ALT and BUN versus control” value [16] was “lack of significant differences”.
In the case of `O=C(O)c1cn(C2CC2)c2cc(N3CCNCC3)c(F)cc2c1=O` [ciprofloxacin], the “increase in resistance” value (S. aureus MW2 [5]; serial passage in ciprofloxacin for 100 days) is reported as 256 fold.
In the case of `COc1ccc(-c2ccc3cc(C(=O)O)ccc3c2)cc1C12CC3CC(CC(C3)C1)C2` [adapalene], the “activity against MRSA” value (MRSA strain MW2; MRSA MW2) is reported as “ineffective against MRSA”.
With `O=C(O)c1ccc2cc(-c3ccc(O)c(C45CC6CC(CC(C6)C4)C5)c3)ccc2c1` [CD437] the “minimum inhibitory concentration (MIC)” value (MRSA strain MW2) was 1 µg/mL (≈ 2.51 µM), the “levels of MW2 after two hours” value [1] was “below the limit of detection” and the “C. elegans protected against MW2-induced death” value [2] was 100%. For the same compound, the “activity against panel of clinical S. aureus strains” value [3] was “potent activity”, the “activity against Enterococcus faecium strains” value [4] was “potent activity” and the “activity against Gram-negative species” value (Gram-negative species) was “not against Gram-negative species”. For the same compound, the “retinoid-resistant mutants by plating” value (S. aureus MW2 [5]) was “unable to obtain retinoid-resistant mutants”, the “increase in resistance” value (S. aureus MW2 [5]; [19]) was “twofold” and the “membrane permeabilization” value ([6]; exponential-phase MW2) was “induced membrane permeabilization”. The “formation of mesosome-like structures” value (S. aureus MW2 [7]) was “caused the formation of mesosome-like structures”, the “integrity of giant unilamellar vesicles” value [8] was “disrupted the integrity” and the “direct lysis of bacterial cells” value [9] was “did not lyse bacterial cells directly”. The “eradication of MRSA persisters” value (S. aureus MW2 persisters [10]) was “completely eradicated MRSA persisters”, the “killing of MRSA persister cells” value (S. aureus MW2 persisters [10]) was “killed MRSA-persister cells” and the “time to complete eradication of persisters of 13 clinical isolates” value [11] was 1 to 4 h. The “persisters in MRSA biofilms killed” value (MRSA MW2 biofilms; 16× MIC) was “around 90%”, the “persisters in MRSA biofilms killed” value (MRSA MW2 biofilms; 32× MIC) was ~100% and the synergism with gentamicin [12] was “significant synergism”. The “median haemolytic concentration (HC50)” value (human erythrocytes) was “greater than 32 μg ml^−1”, the “median lethal concentration (LC50)” value [13] was ≥ 20 µg/mL and the “efficacy in thigh infection model” value [17] was “exhibited efficacy”. For the same compound, the “permeabilization of MRSA-persister membranes” value (S. aureus MW2 persisters [18]) was “induced rapid permeabilization”.
